Data as given in patent US7429579B2, “Tetrahydrobenzazepine derivatives useful as modulators of dopamine D3 receptors (antipsychotic agents)” (SmithKline Beecham, PLC, priority 2000, dated 2008).
pKi: −log10 of the molar value.

Target: T1, dopamine D3 receptor (Homo sapiens, UniProt P35462)
T1 construct: expressed in transfected cells; host or cells: CHO cells (crude cell membranes)
Experiment: Binding experiments on cloned dopamine receptors: displacement of [125I]-Iodosulpride
Details: cloned human D3 receptor expressed in CHO cells, [125I]-Iodosulpride displacement; pKi accurate to about ±0.2-0.3
Method: Binding Experiments on Cloned Dopamine (e.g. D2, D3 and D4) Receptors
Cultures were grown as monolayers or in suspension in standard cell culture media. Cells were recovered by scraping (from monolayers) or by centrifugation (from suspension cultures), and were washed two or three times by suspension in phosphate buffered saline followed by collection by centrifugation. Cell pellets were stored frozen at −80° C. Crude cell membranes were prepared by homogenisation followed by high-speed centrifugation, and characterisation of cloned receptors achieved by radioligand binding.
Preparation of Cho Cell Membranes: Cell Pellets were Gently Thawed at Room temperature, and resuspended in about 20 volumes of ice-cold Extraction buffer; 5 mM EDTA, 50 mM Trizma pre-set crystals (pH7.4@37° C.), 1 mM MgCl2, 5 mM KCl and 120 mM NaCl. The suspension was homogenised using an Ultra-Turrax at full speed for 15 seconds. The homogenate was centrifuged at 18,000 r.p.m for 15 min at 4° C. in a Sorvall RC5C centrifuge. Supernatant was discarded, and homogenate re-suspended in extraction buffer then centrifugation was repeated. The final pellet was resuspended in 50 mM Trizma pre-set crystals (pH 7.4 @ 37° C.) and stored in 1 ml aliquot tubes at −80° C. (D2=3.0E+08 cells, D3=7.0E+07 cells and D4=1.0E+08 cells).
The total volume is 0.2 ml and incubated in a water bath at 37° C. for 40 minutes. Following incubation, samples were filtered onto GF/B Unifilters using a Can berra Packard Filtermate, and washed four times with ice-cold 50 mM Trizma pre-set crystals (pH 7.4 @ 37° C.). The radioactivity on the filters was measured using a Canberra Packard Topcount Scintillation counter. […] For competition curves, 10 serial log concentrations of competing cold drug were used (Dilution range: 10 μM-10 pM). Competition curves were analysed using Inflexion, an iterative curve fitting programme in Excel. Results were expressed as pKi values where pKi=−log 10 [Ki].

T1 sequence (P35462 whole entry): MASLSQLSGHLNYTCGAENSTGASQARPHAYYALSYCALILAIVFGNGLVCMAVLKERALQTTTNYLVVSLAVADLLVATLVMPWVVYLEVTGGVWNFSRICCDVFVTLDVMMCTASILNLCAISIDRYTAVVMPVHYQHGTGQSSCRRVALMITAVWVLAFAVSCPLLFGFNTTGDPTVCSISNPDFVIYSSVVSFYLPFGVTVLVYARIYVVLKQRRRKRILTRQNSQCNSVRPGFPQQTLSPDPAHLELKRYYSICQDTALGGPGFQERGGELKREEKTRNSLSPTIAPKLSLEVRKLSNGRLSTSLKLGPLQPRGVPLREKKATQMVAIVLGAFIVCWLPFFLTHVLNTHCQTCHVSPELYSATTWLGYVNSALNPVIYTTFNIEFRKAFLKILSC

SMILES | pKi
Cn1c(SCCCN2CCc3ccc(OS(C)(=O)=O)cc3CC2)nnc1-c1ccccc1 [Example 1, 3-{3-[(4-methyl-5-phenyl-4H-1,2,4-triazol-3-yl)thio]propyl}-2,3,4,5-tetrahydro-1H-3-benzazepin-7-yl methanesulfonate] | 8.00 to 9.50
CS(=O)(=O)c1ccc2c(c1)CCN(CCCSc1nc(-c3ccccc3)c(-c3ccccc3)[nH]1)CC2 [Example 5, 3-{3-[(4,5-diphenyl-1H-imidazol-2-yl)thio]propyl}-7-(methylsulfonyl)-2,3,4,5-tetrahydro-1H-3-benzazepine] | 8.00 to 9.50
Cn1c(SCCCN2CCc3ccc(OS(C)(=O)=O)cc3CC2)nnc1-c1cccs1 [Example 8, 3-(3-{[4-methyl-5-(2-thienyl)-4H-1,2,4-triazol-3-yl]thio}propyl)-2,3,4,5-tetrahydro-1H-3-benzazepin-7-yl methanesulfonate] | 8.00 to 9.50
Cn1c(SCCCN2CCc3ccc(OS(C)(=O)=O)cc3CC2)nnc1-c1ccc2ncccc2c1 [Example 13, 3-(3-{[4-methyl-5-(6-quinolinyl)-4H-1,2,4-triazol-3-yl]thio}propyl)-2,3,4,5-tetrahydro-1H-3-benzazepin-7-yl methanesulfonate] | 8.00 to 9.50
Cn1c(SCCCN2CCc3ccc(OS(C)(=O)=O)cc3CC2)nnc1-c1ccc(F)cc1 [Example 14, 3-(3-{[5-(4-fluorophenyl)-4-methyl-4H-1,2,4-triazol-3-yl]thio}propyl)-2,3,4,5-tetrahydro-1H-3-benzazepin-7-yl methanesulfonate] | 8.00 to 9.50
CS(=O)(=O)Oc1ccc2c(c1)CCN(CCCSc1nc(-c3ccccc3)c(-c3ccccc3)[nH]1)CC2 [Example 22, 3-{3-[(4,5-diphenyl-1H-imidazol-2-yl)thio]propyl}-2,3,4,5-tetrahydro-1H-3-benzazepin-7-yl methanesulfonate] | 8.00 to 9.50
Cn1c(SCCCN2CCc3ccc(S(=O)(=O)N4CCOCC4)cc3CC2)nnc1-c1ccc2ncccc2c1 [Example 51, 3-(3-{[4-methyl-5-(6-quinolinyl)-4H-1,2,4-triazol-3-yl]thio}propyl)-7-(4-morpholinylsulfonyl)-2,3,4,5-tetrahydro-1H-3-benzazepine] | 8.00 to 9.50
Cc1cnc(-c2ccc3c(c2)CCN(CCCSc2nnc(-c4ccc5ncccc5c4)n2C)CC3)o1 [Example 61, 7-(5-methyl-1,3-oxazol-2-yl)-3-(3-{[4-methyl-5-(6-quinolinyl)-4H-1,2,4-triazol-3-yl]thio}propyl)-2,3,4,5-tetrahydro-1H-3-benzazepine] | 8.00 to 9.50
Cc1cc(-c2ccc3c(c2)CCN(CCCSc2nnc(-c4ccc5ncccc5c4)n2C)CC3)no1 [Example 63, 7-(5-methyl-3-isoxazolyl)-3-(3-{[4-methyl-5-(6-quinolinyl)-4H-1,2,4-triazol-3-yl]thio}propyl)-2,3,4,5-tetrahydro-1H-3-benzazepine] | 8.00 to 9.50
Cn1c(SCCCN2CCc3ccc(S(=O)(=O)c4ccccc4)cc3CC2)nnc1-c1ccc(F)cc1F [Example 67, 3-(3-{[5-(2,4-difluorophenyl)-4-methyl-4H-1,2,4-triazol-3-yl]thio}propyl)-7-(phenylsulfonyl)-2,3,4,5-tetrahydro-1H-3-benzazepine] | 8.00 to 9.50
Cn1c(SCCCN2CCc3ccc(S(=O)(=O)N4CCOCC4)cc3CC2)nnc1-c1ccc(F)cc1F [Example 70, 3-(3-{[5-(2,4-difluorophenyl)-4-methyl-4H-1,2,4-triazol-3-yl]thio}propyl)-7-(4-morpholinylsulfonyl)-2,3,4,5-tetrahydro-1H-3-benzazepine] | 8.00 to 9.50
Cn1c(SCCCN2CCc3ccc(S(C)(=O)=O)cc3CC2)nnc1-c1cc2ccccc2[nH]1 [Example 72, 3-(3-{[5-(1H-indol-2-yl)-4-methyl-4H-1,2,4-triazol-3-yl]thio}propyl)-7-(methylsulfonyl)-2,3,4,5-tetrahydro-1H-3-benzazepine] | 8.00 to 9.50
